Measurements as given in patent publication US10870647B2, “Imidazopyridine derivative, method for preparing same, and pharmaceutical composition containing same as active ingredient for preventing or treating cancer” (DAEGU-GYEONGBUK MEDICAL INNOVATION FOUNDATION, priority 2016, dated 2020).

Legend:
Assay in all cases: Kinase selectivity, scanMAX Kinase assay panel (DiscoverX), % control at 1 uM
Type in all cases: binding
[1] = target: T1, scanMAX Kinase assay panel (Homo sapiens, UniProt P15735); settings: PHKG2; 1 uM; read-out: Percent Control (%)
T1 construct: purchased DiscoverX
T1 sequence (P15735 1-406): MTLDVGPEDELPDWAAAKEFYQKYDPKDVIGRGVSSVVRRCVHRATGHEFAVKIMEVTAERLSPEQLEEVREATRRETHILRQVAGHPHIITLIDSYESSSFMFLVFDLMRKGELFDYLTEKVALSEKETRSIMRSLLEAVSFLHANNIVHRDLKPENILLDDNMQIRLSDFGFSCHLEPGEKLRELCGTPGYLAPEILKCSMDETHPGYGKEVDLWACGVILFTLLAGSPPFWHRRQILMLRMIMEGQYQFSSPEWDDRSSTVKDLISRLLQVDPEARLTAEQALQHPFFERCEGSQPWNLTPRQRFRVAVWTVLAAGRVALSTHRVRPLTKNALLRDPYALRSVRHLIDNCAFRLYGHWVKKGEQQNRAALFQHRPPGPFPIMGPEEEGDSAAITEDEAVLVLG
Outline: (§1)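 Single-point screen at 1 uM compound in DMSO. Lower % control means stronger inhibition, with the cutoff for activity set at <35%.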

[2] = target: T2, scanMAX Kinase assay panel (Homo sapiens, UniProt P42336, C420R); settings: PIK3CA (C420R); 1 uM; read-out: Percent Control (%)
T2 construct: purchased DiscoverX
T2 sequence (P42336 whole entry C420R): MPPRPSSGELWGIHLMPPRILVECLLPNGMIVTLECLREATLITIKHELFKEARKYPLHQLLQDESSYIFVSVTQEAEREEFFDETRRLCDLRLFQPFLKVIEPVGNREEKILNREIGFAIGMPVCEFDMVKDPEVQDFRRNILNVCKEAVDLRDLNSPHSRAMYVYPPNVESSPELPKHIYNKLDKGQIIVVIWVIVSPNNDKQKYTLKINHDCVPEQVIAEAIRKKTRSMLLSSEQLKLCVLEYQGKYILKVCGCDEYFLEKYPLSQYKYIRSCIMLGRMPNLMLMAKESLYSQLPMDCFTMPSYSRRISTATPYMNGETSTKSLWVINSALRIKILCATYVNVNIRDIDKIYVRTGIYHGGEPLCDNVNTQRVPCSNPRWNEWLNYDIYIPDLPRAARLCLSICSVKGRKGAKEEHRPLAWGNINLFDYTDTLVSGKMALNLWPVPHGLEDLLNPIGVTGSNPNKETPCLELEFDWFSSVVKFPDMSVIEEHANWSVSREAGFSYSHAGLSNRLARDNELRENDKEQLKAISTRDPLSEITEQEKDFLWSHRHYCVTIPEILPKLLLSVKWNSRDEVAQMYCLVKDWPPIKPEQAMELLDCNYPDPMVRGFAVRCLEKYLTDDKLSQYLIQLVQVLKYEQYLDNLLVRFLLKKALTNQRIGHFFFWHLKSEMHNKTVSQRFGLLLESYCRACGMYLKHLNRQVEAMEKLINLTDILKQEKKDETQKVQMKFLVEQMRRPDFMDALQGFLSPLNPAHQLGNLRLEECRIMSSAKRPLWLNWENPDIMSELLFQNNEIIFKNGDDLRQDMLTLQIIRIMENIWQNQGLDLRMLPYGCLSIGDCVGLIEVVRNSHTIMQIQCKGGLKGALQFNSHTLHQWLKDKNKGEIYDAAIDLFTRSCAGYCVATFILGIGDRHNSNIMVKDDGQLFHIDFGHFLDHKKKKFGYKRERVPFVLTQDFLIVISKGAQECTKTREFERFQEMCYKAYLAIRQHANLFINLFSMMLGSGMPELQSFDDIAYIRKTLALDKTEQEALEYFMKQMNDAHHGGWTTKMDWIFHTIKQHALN
Outline: as §1

[3] = target: T3, scanMAX Kinase assay panel (Homo sapiens, UniProt P43403); settings: ZAP70; 1 uM; read-out: Percent Control (%)
T3 construct: purchased DiscoverX
T3 sequence (P43403 1-619): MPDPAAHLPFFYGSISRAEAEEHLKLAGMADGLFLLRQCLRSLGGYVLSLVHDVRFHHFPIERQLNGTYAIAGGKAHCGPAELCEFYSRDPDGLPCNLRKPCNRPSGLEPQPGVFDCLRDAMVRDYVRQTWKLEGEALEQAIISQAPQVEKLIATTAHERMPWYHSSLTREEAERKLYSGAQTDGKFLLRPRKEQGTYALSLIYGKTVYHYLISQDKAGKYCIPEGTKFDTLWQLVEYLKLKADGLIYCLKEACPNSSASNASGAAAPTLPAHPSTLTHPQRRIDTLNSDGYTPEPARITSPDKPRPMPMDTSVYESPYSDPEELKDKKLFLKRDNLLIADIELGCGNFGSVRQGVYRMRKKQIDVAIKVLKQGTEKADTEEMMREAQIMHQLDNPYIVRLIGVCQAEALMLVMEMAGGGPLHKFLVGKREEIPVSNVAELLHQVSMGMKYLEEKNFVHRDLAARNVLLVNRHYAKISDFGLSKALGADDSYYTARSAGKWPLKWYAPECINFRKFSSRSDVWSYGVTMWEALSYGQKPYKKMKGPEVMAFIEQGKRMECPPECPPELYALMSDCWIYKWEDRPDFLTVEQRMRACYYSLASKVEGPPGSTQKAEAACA
Outline: as §1

[4] = target: T4, scanMAX Kinase assay panel (Homo sapiens, UniProt P53350); settings: PLK1; 1 uM; read-out: Percent Control (%)
T4 construct: purchased DiscoverX
T4 sequence (P53350 whole entry): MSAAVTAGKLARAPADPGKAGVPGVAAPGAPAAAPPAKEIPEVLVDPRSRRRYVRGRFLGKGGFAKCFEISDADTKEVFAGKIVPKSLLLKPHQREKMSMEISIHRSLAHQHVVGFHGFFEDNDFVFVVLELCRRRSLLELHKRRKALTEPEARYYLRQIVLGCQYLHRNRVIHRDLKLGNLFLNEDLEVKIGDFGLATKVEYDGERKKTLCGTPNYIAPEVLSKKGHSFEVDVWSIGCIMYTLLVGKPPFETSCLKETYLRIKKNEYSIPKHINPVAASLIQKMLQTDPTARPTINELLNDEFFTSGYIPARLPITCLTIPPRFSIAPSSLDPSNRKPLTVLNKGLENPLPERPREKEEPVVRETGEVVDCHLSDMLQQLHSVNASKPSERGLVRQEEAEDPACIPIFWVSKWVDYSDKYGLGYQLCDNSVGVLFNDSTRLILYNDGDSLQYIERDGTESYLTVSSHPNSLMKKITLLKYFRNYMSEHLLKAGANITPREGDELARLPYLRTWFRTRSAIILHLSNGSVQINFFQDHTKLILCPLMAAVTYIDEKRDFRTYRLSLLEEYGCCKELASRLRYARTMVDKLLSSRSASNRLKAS
Outline: as §1

[5] = target: T5, scanMAX Kinase assay panel (Homo sapiens, UniProt Q13554); settings: CAMK2B; 1 uM; read-out: Percent Control (%)
T5 construct: purchased DiscoverX
T5 sequence (Q13554 whole entry): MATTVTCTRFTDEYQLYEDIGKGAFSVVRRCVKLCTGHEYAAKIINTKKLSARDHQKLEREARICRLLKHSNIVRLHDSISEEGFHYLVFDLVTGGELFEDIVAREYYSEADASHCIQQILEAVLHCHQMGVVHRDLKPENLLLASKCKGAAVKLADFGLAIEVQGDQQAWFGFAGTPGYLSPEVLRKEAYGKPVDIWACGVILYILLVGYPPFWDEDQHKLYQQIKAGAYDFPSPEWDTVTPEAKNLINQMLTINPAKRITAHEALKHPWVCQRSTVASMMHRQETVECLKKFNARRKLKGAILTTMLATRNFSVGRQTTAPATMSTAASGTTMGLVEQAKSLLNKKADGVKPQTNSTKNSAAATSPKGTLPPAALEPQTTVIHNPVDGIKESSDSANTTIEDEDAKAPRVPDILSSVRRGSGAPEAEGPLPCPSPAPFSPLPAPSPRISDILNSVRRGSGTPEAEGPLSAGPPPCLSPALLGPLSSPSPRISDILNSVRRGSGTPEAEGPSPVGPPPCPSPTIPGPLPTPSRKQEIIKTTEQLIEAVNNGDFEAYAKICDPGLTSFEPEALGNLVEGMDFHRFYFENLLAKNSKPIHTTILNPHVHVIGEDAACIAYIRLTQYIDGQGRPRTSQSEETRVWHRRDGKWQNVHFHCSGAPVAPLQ
Outline: as §1

[6] = target: T6, scanMAX Kinase assay panel (Homo sapiens, UniProt Q96J92); settings: WNK4; 1 uM; read-out: Percent Control (%)
T6 construct: purchased DiscoverX
T6 sequence (Q96J92 whole entry): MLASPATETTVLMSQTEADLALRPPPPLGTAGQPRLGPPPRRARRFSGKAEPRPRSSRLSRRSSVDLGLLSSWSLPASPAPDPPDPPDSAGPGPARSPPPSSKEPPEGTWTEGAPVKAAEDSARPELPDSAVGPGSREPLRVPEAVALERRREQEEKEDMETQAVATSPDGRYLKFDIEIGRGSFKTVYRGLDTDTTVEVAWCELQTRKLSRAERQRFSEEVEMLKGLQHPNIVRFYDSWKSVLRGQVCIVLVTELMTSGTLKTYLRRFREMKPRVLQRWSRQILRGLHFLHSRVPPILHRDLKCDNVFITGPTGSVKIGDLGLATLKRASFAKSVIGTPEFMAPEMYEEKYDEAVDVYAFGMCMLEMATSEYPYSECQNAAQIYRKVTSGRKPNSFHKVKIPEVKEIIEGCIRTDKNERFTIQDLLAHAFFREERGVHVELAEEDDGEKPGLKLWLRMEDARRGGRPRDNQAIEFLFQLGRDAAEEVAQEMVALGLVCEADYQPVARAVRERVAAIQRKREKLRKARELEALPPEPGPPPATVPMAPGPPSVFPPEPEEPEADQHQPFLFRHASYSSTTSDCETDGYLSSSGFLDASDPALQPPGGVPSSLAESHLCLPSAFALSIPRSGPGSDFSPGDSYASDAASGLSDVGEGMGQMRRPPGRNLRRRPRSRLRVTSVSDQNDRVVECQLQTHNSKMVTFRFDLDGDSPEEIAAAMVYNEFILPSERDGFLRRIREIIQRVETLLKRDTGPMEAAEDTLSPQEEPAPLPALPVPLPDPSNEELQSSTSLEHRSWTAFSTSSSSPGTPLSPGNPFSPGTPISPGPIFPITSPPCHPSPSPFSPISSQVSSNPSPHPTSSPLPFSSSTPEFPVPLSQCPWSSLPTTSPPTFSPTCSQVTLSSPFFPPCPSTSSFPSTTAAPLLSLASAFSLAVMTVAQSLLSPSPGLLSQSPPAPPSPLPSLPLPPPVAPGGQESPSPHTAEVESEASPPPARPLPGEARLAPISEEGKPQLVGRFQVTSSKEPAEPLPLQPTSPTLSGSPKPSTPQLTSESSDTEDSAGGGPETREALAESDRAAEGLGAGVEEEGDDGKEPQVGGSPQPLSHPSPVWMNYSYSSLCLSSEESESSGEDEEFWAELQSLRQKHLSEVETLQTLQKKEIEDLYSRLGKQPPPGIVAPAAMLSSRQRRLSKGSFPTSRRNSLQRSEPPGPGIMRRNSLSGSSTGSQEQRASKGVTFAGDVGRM
Outline: as §1

[7] = target: T7, scanMAX Kinase assay panel (Homo sapiens, UniProt Q96L34); settings: MARK4; 1 uM; read-out: Percent Control (%)
T7 construct: purchased DiscoverX
T7 sequence (Q96L34 1-752): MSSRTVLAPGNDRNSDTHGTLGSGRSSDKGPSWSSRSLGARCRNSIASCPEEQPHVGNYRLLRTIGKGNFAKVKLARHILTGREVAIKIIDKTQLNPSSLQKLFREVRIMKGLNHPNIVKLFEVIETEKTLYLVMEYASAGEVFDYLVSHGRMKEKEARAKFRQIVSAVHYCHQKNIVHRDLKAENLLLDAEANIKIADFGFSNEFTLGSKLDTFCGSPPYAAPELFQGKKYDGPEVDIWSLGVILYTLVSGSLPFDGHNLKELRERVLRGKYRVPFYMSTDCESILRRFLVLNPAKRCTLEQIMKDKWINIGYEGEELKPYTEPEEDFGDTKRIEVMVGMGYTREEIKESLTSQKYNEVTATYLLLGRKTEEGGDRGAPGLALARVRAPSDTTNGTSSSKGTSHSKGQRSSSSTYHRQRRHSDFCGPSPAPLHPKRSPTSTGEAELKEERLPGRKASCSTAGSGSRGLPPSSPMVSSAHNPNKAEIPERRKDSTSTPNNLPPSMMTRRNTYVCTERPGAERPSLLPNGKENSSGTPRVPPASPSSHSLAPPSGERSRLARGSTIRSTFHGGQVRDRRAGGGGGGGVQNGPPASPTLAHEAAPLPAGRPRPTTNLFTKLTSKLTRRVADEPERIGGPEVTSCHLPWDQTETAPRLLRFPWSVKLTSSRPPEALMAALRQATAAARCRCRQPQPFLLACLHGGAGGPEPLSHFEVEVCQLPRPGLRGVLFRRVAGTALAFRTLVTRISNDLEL
Outline: as §1

[8] = target: T8, scanMAX Kinase assay panel (Homo sapiens, UniProt Q96SB4); settings: SRPK1; 1 uM; read-out: Percent Control (%)
T8 construct: purchased DiscoverX
T8 sequence (Q96SB4 whole entry): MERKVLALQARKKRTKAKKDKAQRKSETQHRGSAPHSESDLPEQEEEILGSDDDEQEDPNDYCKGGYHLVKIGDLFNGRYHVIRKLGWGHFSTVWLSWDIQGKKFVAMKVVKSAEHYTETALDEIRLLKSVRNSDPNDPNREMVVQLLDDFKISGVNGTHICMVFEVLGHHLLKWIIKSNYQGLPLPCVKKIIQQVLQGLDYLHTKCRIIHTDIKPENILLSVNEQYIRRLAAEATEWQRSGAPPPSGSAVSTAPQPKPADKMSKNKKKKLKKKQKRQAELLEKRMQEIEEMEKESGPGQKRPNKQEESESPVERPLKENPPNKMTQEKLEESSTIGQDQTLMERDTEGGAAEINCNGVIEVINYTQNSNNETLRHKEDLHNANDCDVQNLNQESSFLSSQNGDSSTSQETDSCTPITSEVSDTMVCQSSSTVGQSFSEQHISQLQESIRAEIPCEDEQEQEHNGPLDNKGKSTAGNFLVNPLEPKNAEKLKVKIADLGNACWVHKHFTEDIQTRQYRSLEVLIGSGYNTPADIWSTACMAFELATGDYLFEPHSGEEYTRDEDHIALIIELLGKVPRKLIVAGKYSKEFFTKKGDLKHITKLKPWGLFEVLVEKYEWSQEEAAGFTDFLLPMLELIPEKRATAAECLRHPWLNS
Outline: as §1

SMILES: Cc1ccc(NC(=O)C2(C(=O)Nc3ccc(F)cc3)CC2)cc1C#Cc1cnc2c(Nc3cnn(C(C)C)c3)cccn12 [Example 78]
- remaining binding at 1 µM [1]: 100%
- remaining binding at 1 µM [2]: 100%
- remaining binding at 1 µM [3]: 96%
- remaining binding at 1 µM [4]: 100%
- remaining binding at 1 µM [5]: 100%
- remaining binding at 1 µM [6]: 100%
- remaining binding at 1 µM [7]: 97%
- remaining binding at 1 µM [8]: 97%

SMILES: Cc1cn(-c2cc(NC(=O)c3ccc(C)c(C#Cc4cnc5c(Nc6cnn(C)c6)cccn45)c3)cc(C(F)(F)F)c2)cn1 [Example 12, 4-methyl-N-(3-(4-methyl-1H-imidazol-1-yl)-5-(trifluoromethyl)phenyl)-3-((8-((1-methyl-1H-pyrazol-4-yl)amino)imidazo[1,2-a]pyridin-3-yl)ethynyl)benzamide]
- remaining binding at 1 µM [1]: 89%
- remaining binding at 1 µM [2]: 100%
- remaining binding at 1 µM [3]: 100%
- remaining binding at 1 µM [4]: 100%
- remaining binding at 1 µM [5]: 96%
- remaining binding at 1 µM [6]: 100%
- remaining binding at 1 µM [7]: 86%
- remaining binding at 1 µM [8]: 69%

SMILES: Cc1ccc(C(=O)Nc2ccc(CN3CCN(C)CC3)c(C(F)(F)F)c2)cc1C#Cc1cnc2c(Nc3cnn(C)c3)cccn12 [Example 1, 4-methyl-3-((8-((1-methyl-1H-pyrazol-4-yl)amino)imidazo[1,2-a]pyridin-3-yl)ethynyl)-N-(4-((4-methylpiperazin-1-yl)methyl)-3-(trifluoromethyl)phenyl)benzamide]
- remaining binding at 1 µM [1]: 72%
- remaining binding at 1 µM [2]: 97%
- remaining binding at 1 µM [3]: 26%
- remaining binding at 1 µM [4]: 77%
- remaining binding at 1 µM [5]: 76%
- remaining binding at 1 µM [6]: 96%
- remaining binding at 1 µM [7]: 100%
- remaining binding at 1 µM [8]: 3%
